13 molecules from US10017495B2, “Therapeutically active compounds and their methods of use” (AGIOS PHARMACEUTICALS, INC, priority 2013, dated 2018) can be followed below.

A value given as a limit tells only on which side of the number the result lay.

Experiment [1] deals with U87MG pLVX-IDH2 R140Q-neo cells. Nature of the experiment: U87MG pLVX-IDH2 R140Q-Neo cell based assay (2-HG in media by LC-MS). Particulars: 48 hours; for IC50: Homo sapiens, U-87 MG. The protocol:
U87MG pLVX-IDH2 R140Q-Neo Cell Based Assay.
U87MG pLVX-IDH2 R140Q-neo cells are grown in T125 flasks in DMEM containing 10% FBS, 1× penicillin/streptomycin and 500 μg/mL G418. They are harvested by trypsin and seeded into 96 well white bottom plates at a density of 5000 cell/well in 100 μl/well in DMEM with 10% FBS. No cells are plated in columns 1 and 12. Cells are incubated overnight at 37° C. in 5% CO2. The next day compounds are made up at 2× concentration and 100 ul are added to each cell well. The final concentration of DMSO is 0.2% and the DMSO control wells are plated in row G. The plates are then placed in the incubator for 48 hours. At 48 hours, 100 ul of media is removed from each well and analyzed by LC-MS for 2-HG concentrations. The cell plate is placed back in the incubator for another 24 hours. At 72 hours post compound addition, 10 mL/plate of Promega Cell Titer Glo reagent is thawed and mixed. The cell plate is removed from the incubator and allowed to equilibrate to room temperature. Then 100 ul of reagent is added to each well of media. The cell plate is then placed on an orbital shaker for 10 minutes and then allowed to sit at room temperature for 20 minutes. The plate is then read for luminescence with an integration time of 500 ms to determine compound effects on growth inhibition.

A further experiment addresses T1, IDH2 R140Q (Homo sapiens, UniProt P48735, R140Q).
T1 sequence (P48735 40-452 R140Q): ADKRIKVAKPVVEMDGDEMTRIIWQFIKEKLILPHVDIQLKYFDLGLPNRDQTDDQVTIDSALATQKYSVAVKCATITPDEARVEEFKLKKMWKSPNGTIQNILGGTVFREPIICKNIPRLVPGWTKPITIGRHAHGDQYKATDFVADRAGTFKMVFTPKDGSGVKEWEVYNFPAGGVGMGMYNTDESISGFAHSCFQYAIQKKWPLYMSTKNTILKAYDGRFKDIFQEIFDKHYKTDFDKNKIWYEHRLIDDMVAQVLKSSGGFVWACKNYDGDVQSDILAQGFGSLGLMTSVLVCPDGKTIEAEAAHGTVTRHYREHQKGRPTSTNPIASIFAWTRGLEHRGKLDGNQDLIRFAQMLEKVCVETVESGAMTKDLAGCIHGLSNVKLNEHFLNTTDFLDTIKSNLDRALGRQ
Description: IDH2 R140Q enzymatic assay (cofactor depletion assay, diaphorase/resazurin readout). Type of experiment: biochemical. Particulars: read-out: Enz R140Q. The protocol: [The source words this procedure for another variant and says it was used here with some conditions changed.] Compounds are assayed for IDH2 R172K inhibitory activity through a cofactor depletion assay. […] The reaction is terminated by the addition of a second enzyme, diaphorase, and a corresponding substrate, resazurin. Diaphorase reduces resazurin to the highly fluorescent resorufin with the concomitant oxidation of NADPH to NADP, both halting the IDH2 reaction by depleting the available cofactor pool and facilitating quantitation of the amount of cofactor remaining after a specific time period through quantitative production of an easily detected fluorophore.
The test compound is then incubated for one hour at room temperature with the enzyme; before starting the IDH2 reaction with the addition of 10 μl of substrate mix containing 50 μM NADPH and 6.3 mM α-KG in the buffer described above. After a further one hour of incubation at room temperature, the reaction is halted and the remaining NADPH measured through conversion of resazurin to resorufin by the addition of 25 μl Stop Mix (36 μg/ml diaphorase enzyme and 60 μM resazurin; in buffer). After one minute of incubation the plate is read on a plate reader at Ex544/Em590.

In the case of `CC(C)Nc1nc(Nc2ccnc(C(F)(F)F)c2)nc(C2=CCCCC2)n1` [Compound 1, 6-(cyclohex-1-en-1-yl)-N2-isopropyl-N4-(2-(trifluoromethyl)pyridin-4-yl)-1,3,5-triazine-2,4-diamine], the IC50 (in experiment [1]; on IDH2 R140Q) was less than 100 nM each time.
For `CC(C)Nc1nc(Nc2ccnc(C(F)(F)F)c2)nc(C2CCCCC2)n1` [Compound 2], the IC50 (in experiment [1]; on IDH2 R140Q) was less than 100 nM each time.
On to `CC(C)Nc1nc(Nc2ccnc(C(F)(F)F)c2)nc(C(C)(C)C)n1` [Compound 3, 6-(tert-butyl)-N2-isopropyl-N4-(2-(trifluoromethyl)pyridin-4-yl)-1,3,5-triazine-2,4-diamine], for which the IC50 (in experiment [1]; at IDH2 R140Q) was 100 to 1000 nM throughout.
For the molecule `CC(C)Nc1nc(Nc2ccnc(C(F)(F)F)c2)nc(C2CCCC2)n1` [Compound 4, 6-cyclopentyl-N2-isopropyl-N4-(2-(trifluoromethyl)pyridin-4-yl)-1,3,5-triazine-2,4-diamine], the IC50 in experiment [1] is 100 to 1000 nM; on IDH2 R140Q it was less than 100 nM.
The like results for `CC(C)Nc1nc(Nc2ccnc(C(F)(F)F)c2)nc(C2CCC2)n1` [Compound 5, 6-cyclobutyl-N2-isopropyl-N4-(2-(trifluoromethyl)pyridin-4-yl)-1,3,5-triazine-2,4-diamine] were, in that order, 100 to 1000 nM and less than 100 nM.
On the same counts, the results for `CC(C)Nc1nc(Nc2ccnc(C(F)(F)F)c2)nc(C2=CC(=O)CCC2)n1` [Compound 6, 3-(4-(isopropylamino)-6-((2-(trifluoromethyl)pyridin-4-yl)amino)-1,3,5-triazin-2-yl)cyclohex-2-enone] are less than 100 nM and 100 to 1000 nM.
On the same counts, the results for `CC(C)Nc1nc(Nc2ccnc(C(F)(F)F)c2)nc(C2=CC(O)CCC2)n1` (stereo not shown) [Compound 7, 3-(4-(isopropylamino)-6-((2-(trifluoromethyl)pyridin-4-yl)amino)-1,3,5-triazin-2-yl)cyclohex-2-enol] are less than 100 nM and less than 100 nM.
Regarding `CC(C)Nc1nc(Nc2ccnc(C(F)(F)F)c2)nc(C2CCCC(=O)C2)n1` (stereo not shown) [Compound 8, 3-(4-(isopropylamino)-6-((2-(trifluoro-methyl)pyridin-4-yl)amino)-1,3,5-triazin-2-yl)cyclohexanone], the IC50 in experiment [1] is less than 100 nM; on IDH2 R140Q, 100 to 1000 nM.
The like results for `CC1CCCC(c2nc(Nc3ccnc(C(F)(F)F)c3)nc(NC(C)C)n2)C1` (stereo not shown) [Compound 9] were, in that order, 100 to 1000 nM and less than 100 nM.
For `CC1CC(C)CC(c2nc(Nc3ccnc(C(F)(F)F)c3)nc(NC(C)C)n2)C1` (stereo not shown) [Compound 10], the IC50 on IDH2 R140Q lay within 100 to 1000 nM.
Regarding `CC(C)Nc1nc(Nc2ccnc(C(F)(F)F)c2)nc(C2CCCC(O)C2)n1` (stereo not shown) [Compound 11, 3-(4-(isopropylamino)-6-((2-(trifluoromethyl)pyridin-4-yl)amino)-1,3,5-triazin-2-yl)cyclohexanol], the IC50 (in experiment [1]; at IDH2 R140Q) was less than 100 nM throughout.
For the molecule `CC(C)Nc1nc(Nc2ccnc(C(F)(F)F)c2)nc(C2=CC(=O)NCC2)n1` [Compound 12], the figures for the IC50 (in experiment [1]; at IDH2 R140Q) were 100 to 1000 nM and less than 100 nM, respectively.
Regarding `CC(C)Nc1nc(Nc2ccnc(C(F)(F)F)c2)nc(C2CCNC(=O)C2)n1` (stereo not shown) [Compound 13], in experiment [1], the “Cell R140Q” value was “No fit”. In addition, at IDH2 R140Q, the IC50 is 1000 to 10000 nM.
